The values below come from paper PMC9631063, “Schisandrin B Attenuates Diabetic Cardiomyopathy by Targeting MyD88 and Inhibiting MyD88‐Dependent Inflammation” (Advanced Science, 2022).

The assay concerns the target T1, rhMyD88(TIR) (Homo sapiens, UniProt Q99836).
T1 construct: gene MYD88; Results text calls it only rhMyD88
The assay is described as follows: isothermal titration calorimetry (Nano-ITC). In kind it is binding. (ITC needs no label: the signal is the heat of the interaction.)

T1 sequence (Q99836 159-296 limits assumed): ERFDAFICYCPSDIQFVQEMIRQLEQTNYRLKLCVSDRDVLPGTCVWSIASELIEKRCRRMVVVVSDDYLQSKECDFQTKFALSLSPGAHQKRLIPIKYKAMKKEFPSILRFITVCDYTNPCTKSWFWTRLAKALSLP

For `COc1cc2c(c(OC)c1OC)-c1c(cc3c(c1OC)OCO3)CC(C)C(C)C2` (stereo not shown) [Schisandrin B], binding was put at a Kd of 125 µM.
